Assay results from patent US20220175925A1, “PHARMACEUTICAL COMPOSITION FOR PREVENTING OR TREATING TREATMENT-RESISTANT CANCER” (JIMRO CO., LTD., priority 2019, published 2022).
pEC50: −log10 of the molar value.

Key:
Assay type in all cases: cell-based
C8166 ATL cell line = assay: PDT using 5-ALA, cell survival rate by Cell Counting Kit-8, C8166; settings: for pEC50: Homo sapiens, C8166, light or radiation study, 4 h, C8166, 5-ALA loaded 4 hours
Description: (§1) ATN-1, C8166, TL-Om1, Hut102, and MT-1 were used as ATL cell lines. Among them, lenalidomide-sensitive cell line was Hut102 and lenalidomide-resistant cell line was C8166. The sensitivity of ATN-1, TL-Om1, and MT-1 to lenalidomide was unknown. Meanwhile, tretinoin-sensitive cell line was C8166 and tretinoin-resistant cell line was Hut102. The sensitivity of ATN-1, TL-Om1, and MT-1 to tretinoin was unknown. In addition, mogamulizumab-sensitive cell lines were ATN-1, TL-Om1, and MT-1, and mogamulizumab-resistant cell line was Hut102. The sensitivity of C8166 to mogamulizumab was unknown. These cells were passaged and cultured. For the experiment, cells were prepared to a density of 1×10^6 cells/ml at the beginning of the experiment.
(§2) To the cell suspension, 5-ALA was added at concentrations of 0, 0.0625, 0.125, 0.25, and 0.5 mM and loaded for 4 hours. The cell after 5-ALA loading was washed and irradiated with light (0, 10, 30, and 100 J/cm^2) at a central wavelength of 630 nm, and cell survival rate (%) was calculated by Cell Counting Kit-8.

Hut102 ATL cell line = assay: PDT using 5-ALA, cell survival rate by Cell Counting Kit-8, Hut102; settings: for pEC50: HuT-102, light or radiation study, 4 h, Hut102, 5-ALA loaded 4 hours
Description: as §1, §2

ATN-1 ATL cell line = assay: PDT using 5-ALA, cell survival rate by Cell Counting Kit-8, ATN-1; settings: Homo sapiens, ATN-1, light or radiation study, 4 h, 5-ALA loaded 4 hours
Description: as §1, §2

TL-Om1 ATL cell line = assay: PDT using 5-ALA, cell survival rate by Cell Counting Kit-8, TL-Om1; settings: light or radiation study, 4 h, 5-ALA loaded 4 hours
Description: as §1, §2

MT-1 ATL cell line = assay: PDT using 5-ALA, cell survival rate by Cell Counting Kit-8, MT-1; settings: light or radiation study, 4 h, 5-ALA loaded 4 hours
Description: as §1, §2

[1] = tested on: LAMA84-r imatinib-resistant CML cell line; assay: PDT using 5-ALA, cell survival rate by Cell Counting Kit-8, LAMA84-r
Experimental: (§3) LAMA84-r was used as imatinib-resistant CML cell line and the original cell line LAMA84-s (imatinib-sensitive) was used as a comparative control. In addition, K562/ADR was used as doxorubicin-resistant CML cell line and the original cell line K562 (doxorubicin-sensitive) was used as a comparative control. These cells were passaged and cultured. For the experiment, cells were prepared to a density of 1×10^6 cells/ml at the beginning of the experiment.
as §2

[2] = tested on: K562/ADR doxorubicin-resistant CML cell line; assay: PDT using 5-ALA, cell survival rate by Cell Counting Kit-8, K562/ADR
Experimental: as §3, §2

For `NCC(=O)CCC(=O)O` [5-ALA, 5-aminolevulinic acid], the “cell killing by PDT using 5-ALA” value (C8166 ATL cell line; C8166, lenalidomide-resistant cell line, FIG. 1) was “killed”, the pEC50 (C8166 ATL cell line; 10 J/cm^2 at 630 nm) was 3.95 and the pEC50 (C8166 ATL cell line; 30 J/cm^2 at 630 nm) was 4.06. For the same molecule, the pEC50 (C8166 ATL cell line; 100 J/cm^2 at 630 nm) was 4.11, the “cell killing effect of PDT using 5-ALA relative to sensitive cell line” value (C8166 ATL cell line; lenalidomide-resistant C8166 versus lenalidomide-sensitive Hut102) was “comparable” and the “cell killing effect of PDT using 5-ALA relative to sensitive cell line” value (C8166 ATL cell line; tretinoin-resistant cell line C8166 versus tretinoin-sensitive cell line Hut102 (so in the source)) was “comparable”. The “cell killing by PDT using 5-ALA” value (Hut102 ATL cell line; HuT102, mogamulizumab-resistant and tretinoin-resistant cell line, FIG. 1) was “killed”, the pEC50 (Hut102 ATL cell line; 10 J/cm^2 at 630 nm) was 3.36 and the pEC50 (Hut102 ATL cell line; 30 J/cm^2 at 630 nm) was 3.56. The pEC50 (Hut102 ATL cell line; 100 J/cm^2 at 630 nm) was 3.76, the “cell killing effect of PDT using 5-ALA relative to sensitive cell lines” value (Hut102 ATL cell line; mogamulizumab-resistant Hut102 versus the other sensitive cell lines (ATN-1, TL-Om1, MT-1)) was “at least comparable” and the pEC50 (ATN-1 ATL cell line; 10 J/cm^2 at 630 nm) was 3.95. The pEC50 (ATN-1 ATL cell line; 30 J/cm^2 at 630 nm) was 4.06, the pEC50 (ATN-1 ATL cell line; 100 J/cm^2 at 630 nm) was 4.08 and the pEC50 (TL-Om1 ATL cell line; 10 J/cm^2 at 630 nm) was 3.57. For the same molecule, the pEC50 (TL-Om1 ATL cell line; 30 J/cm^2 at 630 nm) was 3.85, the pEC50 (TL-Om1 ATL cell line; 100 J/cm^2 at 630 nm) was 4.04 and the pEC50 (MT-1 ATL cell line; 10 J/cm^2 at 630 nm) was < 3.30. For the same molecule, the pEC50 (MT-1 ATL cell line; 30 J/cm^2 at 630 nm) was 3.69, the pEC50 (MT-1 ATL cell line; 100 J/cm^2 at 630 nm) was 3.94 and the “cell killing by PDT using 5-ALA” value ([1]; LAMA84-r, imatinib-resistant cell line, FIG. 2) was “killed”. For the same molecule, the “cell killing effect of PDT using 5-ALA relative to sensitive cell line” value ([1]; imatinib-resistant LAMA84-r versus LAMA84-s) was “comparable”, the “cell killing by PDT using 5-ALA” value ([2]; K562/ADR, doxorubicin-resistant cell line, FIG. 2) was “killed” and the “cell killing effect of PDT using 5-ALA relative to sensitive cell line” value ([2]; doxorubicin-resistant K562/ADR versus K562) was “comparable”.
